Measured values from ChEMBL document CHEMBL5385847, “Design, synthesis and biological evaluation of a new class of 7H-pyrrolo[2,3-d]pyrimidine derivatives as Mps1 inhibitors for the treatment of breast cancer” (Eur J Med Chem, 2023).
Activity calls are given as the source filed them. The calls are words filed in the database; no cut-off is given here.

Legend:
[1] = Toxicity in BALB/C mouse xenografted with mouse 4T1-Luc cells assessed as histological change in heart at 30 to 60 mg/kg, po qd treated for 15 days by H and E staining based analysis; format: organism-based; conditions: in vivo, 360 h, dose 30-60 mg/kg, time 15 day
[2] = biological target: Tyrosine-protein kinase JAK2 (Homo sapiens) (UniProt O60674); assay: Inhibition of human JAK2 at 0.1 uM by KINOMEscan assay relative to control
Sequence of Tyrosine-protein kinase JAK2 (Homo sapiens) (O60674 whole entry): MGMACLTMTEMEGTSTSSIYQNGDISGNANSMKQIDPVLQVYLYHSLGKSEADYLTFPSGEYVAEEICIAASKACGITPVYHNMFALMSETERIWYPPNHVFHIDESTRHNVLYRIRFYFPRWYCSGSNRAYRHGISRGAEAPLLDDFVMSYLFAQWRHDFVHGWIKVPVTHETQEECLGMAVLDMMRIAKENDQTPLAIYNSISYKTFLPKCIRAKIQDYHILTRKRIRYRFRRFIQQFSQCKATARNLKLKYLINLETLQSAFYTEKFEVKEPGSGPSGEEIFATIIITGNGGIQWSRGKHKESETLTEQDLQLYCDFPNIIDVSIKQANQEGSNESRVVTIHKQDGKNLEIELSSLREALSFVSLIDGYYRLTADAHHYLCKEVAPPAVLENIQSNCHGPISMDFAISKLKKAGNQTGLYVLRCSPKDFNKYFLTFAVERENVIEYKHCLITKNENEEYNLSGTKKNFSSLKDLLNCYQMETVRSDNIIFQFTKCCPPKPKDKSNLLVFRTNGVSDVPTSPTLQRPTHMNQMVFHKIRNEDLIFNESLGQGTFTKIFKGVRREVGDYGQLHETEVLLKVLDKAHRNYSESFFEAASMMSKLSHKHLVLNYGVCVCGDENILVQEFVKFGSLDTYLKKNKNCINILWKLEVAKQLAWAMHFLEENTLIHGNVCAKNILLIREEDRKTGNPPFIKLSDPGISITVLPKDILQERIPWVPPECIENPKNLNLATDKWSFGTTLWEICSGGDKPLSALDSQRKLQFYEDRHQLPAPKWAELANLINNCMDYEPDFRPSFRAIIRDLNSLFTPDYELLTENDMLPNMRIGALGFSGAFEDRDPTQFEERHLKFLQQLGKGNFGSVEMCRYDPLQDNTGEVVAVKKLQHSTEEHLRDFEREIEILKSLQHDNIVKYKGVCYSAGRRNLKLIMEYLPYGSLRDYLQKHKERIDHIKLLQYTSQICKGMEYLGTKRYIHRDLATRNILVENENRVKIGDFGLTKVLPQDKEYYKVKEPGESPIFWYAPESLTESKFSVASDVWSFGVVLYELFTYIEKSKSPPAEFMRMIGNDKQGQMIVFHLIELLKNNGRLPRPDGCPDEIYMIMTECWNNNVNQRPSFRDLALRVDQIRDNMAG

[3] = biological target: T1, Dual specificity protein kinase TTK (Homo sapiens, UniProt P33981); assay: Inhibition of Mps1 (unknown origin) incubated for 120 mins in presence of substrate/ATP by ADP-Glo assay
T1 sequence (P33981 whole entry): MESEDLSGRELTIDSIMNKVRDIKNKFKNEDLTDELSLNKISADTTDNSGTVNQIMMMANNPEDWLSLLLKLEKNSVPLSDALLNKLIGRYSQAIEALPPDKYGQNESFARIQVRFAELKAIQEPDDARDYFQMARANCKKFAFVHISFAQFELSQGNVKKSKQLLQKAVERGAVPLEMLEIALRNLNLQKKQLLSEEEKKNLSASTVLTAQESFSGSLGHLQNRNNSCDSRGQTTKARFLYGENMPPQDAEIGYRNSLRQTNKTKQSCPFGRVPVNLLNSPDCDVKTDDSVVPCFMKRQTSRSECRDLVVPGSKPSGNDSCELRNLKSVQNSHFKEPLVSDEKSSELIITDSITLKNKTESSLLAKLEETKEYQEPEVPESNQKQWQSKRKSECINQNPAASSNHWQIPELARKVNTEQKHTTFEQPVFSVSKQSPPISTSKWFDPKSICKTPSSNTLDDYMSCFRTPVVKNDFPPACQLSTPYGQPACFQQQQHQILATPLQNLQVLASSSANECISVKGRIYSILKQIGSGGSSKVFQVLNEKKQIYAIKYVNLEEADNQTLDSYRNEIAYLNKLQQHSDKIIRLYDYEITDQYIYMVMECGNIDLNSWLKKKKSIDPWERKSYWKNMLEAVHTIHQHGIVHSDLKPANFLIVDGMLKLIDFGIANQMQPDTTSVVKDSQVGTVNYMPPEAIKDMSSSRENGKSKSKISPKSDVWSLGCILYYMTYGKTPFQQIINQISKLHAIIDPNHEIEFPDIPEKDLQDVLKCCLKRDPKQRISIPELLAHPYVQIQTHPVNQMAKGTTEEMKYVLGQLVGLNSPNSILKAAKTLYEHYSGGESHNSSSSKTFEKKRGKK

[4] = system: Tyrosine-protein kinase ABL1 (Homo sapiens), P00519 [T315I]; assay: Inhibition of human Abl T315I mutant at 0.1 uM by KINOMEscan assay relative to control
4T1 [5] = assay: Induction of apoptosis in 4T1 cells assessed as necrotic cells at 1 uM incubated for 48 hrs by Annexin V-FITC/PI staining based flow cytometry (reference value: 0.20 %); format: functional, Mus musculus
A549 = assay: Antiproliferative activity against human A549 cells assessed as inhibition of cell viability by MTT assay; format: functional, cell-based
MDA-MB-231 = assay: Antiproliferative activity against human MDA-MB-231 cells assessed as inhibition of cell viability by MTT assay; format: functional, cell-based
[6] = Toxicity in BALB/C mouse xenografted with mouse 4T1-Luc cells assessed as histological change in lung at 30 to 60 mg/kg, po qd treated for 15 days by H and E staining based analysis; format: organism-based; conditions: in vivo, 360 h, dose 30-60 mg/kg, time 15 day
4T1-Luc [7] = assay: Inhibition of cell proliferation in mouse 4T1-Luc cells xenografted in BALB/C mouse assessed as reduction in Ki-67 positive cells at 30 to 60 mg/kg, po qd treated for 15 days by IHC analysis; format: functional, organism-based; conditions: dose 30-60 mg/kg, time 15.0 day
4T1-Luc [8] = assay: Antitumor activity against mouse 4T1-Luc cells xenografted in BALB/C mouse assessed as delay in tumor growth at 30 to 60 mg/kg, po qd treated for 15 days; format: functional, organism-based; conditions: dose 30-60 mg/kg, time 15.0 day
[9] = Toxicity in BALB/C mouse xenografted with mouse 4T1-Luc cells assessed as histological change in spleen at 30 to 60 mg/kg, po qd treated for 15 days by H and E staining based analysis; format: organism-based; conditions: in vivo, 360 h, dose 30-60 mg/kg, time 15 day
MCF7 [10] = assay: Antiproliferative activity against human MCF7 cells upto 5 uM measured after 14 days by colony formation assay; format: functional, cell-based; conditions: time 14.0 day
[11] = biological target: Receptor-type tyrosine-protein kinase FLT3 (Homo sapiens) (UniProt P36888); assay: Inhibition of human FLT3 at 1 uM by KINOMEscan assay relative to control
Sequence of Receptor-type tyrosine-protein kinase FLT3 (Homo sapiens) (P36888 whole entry): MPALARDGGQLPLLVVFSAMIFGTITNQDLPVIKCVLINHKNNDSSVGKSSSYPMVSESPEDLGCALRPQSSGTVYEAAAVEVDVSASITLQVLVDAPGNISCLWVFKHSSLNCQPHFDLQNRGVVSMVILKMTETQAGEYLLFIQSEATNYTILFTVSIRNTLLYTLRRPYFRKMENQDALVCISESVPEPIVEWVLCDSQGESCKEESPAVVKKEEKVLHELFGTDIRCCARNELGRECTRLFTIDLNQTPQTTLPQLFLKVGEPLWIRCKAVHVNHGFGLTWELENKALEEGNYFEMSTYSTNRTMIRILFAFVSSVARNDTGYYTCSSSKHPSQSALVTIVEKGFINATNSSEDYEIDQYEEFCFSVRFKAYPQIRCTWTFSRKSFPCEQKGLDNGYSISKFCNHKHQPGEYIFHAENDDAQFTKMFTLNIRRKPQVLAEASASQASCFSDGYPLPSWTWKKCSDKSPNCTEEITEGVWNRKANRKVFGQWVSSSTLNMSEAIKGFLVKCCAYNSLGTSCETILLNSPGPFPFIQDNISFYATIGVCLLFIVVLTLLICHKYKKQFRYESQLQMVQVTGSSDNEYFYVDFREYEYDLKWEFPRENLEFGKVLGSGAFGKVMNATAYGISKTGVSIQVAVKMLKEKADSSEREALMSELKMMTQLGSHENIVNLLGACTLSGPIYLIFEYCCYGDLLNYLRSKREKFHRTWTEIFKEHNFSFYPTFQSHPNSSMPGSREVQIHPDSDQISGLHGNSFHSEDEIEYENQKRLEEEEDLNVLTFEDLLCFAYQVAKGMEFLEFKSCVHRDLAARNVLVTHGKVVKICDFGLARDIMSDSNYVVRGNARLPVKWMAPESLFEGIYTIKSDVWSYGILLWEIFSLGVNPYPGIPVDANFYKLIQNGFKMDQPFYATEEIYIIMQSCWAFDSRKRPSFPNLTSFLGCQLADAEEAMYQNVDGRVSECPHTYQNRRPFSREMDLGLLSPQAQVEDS

AGS = assay: Antiproliferative activity against human AGS cells assessed as inhibition of cell viability upto 10 uM incubated for 72 hrs by MTT assay; format: functional, cell-based
MCF7 [12] = assay: Induction of apoptosis in human MCF7 cells assessed as increase in cleaved PARP level upto 3 uM incubated for 48 hrs by Western blot analysis; format: functional, cell-based
[13] = biological target: Tyrosine-protein kinase Yes (Homo sapiens) (UniProt P07947); assay: Inhibition of human Yes at 0.1 uM by KINOMEscan assay relative to control
Sequence of Tyrosine-protein kinase Yes (Homo sapiens) (P07947 2-543 limits assumed): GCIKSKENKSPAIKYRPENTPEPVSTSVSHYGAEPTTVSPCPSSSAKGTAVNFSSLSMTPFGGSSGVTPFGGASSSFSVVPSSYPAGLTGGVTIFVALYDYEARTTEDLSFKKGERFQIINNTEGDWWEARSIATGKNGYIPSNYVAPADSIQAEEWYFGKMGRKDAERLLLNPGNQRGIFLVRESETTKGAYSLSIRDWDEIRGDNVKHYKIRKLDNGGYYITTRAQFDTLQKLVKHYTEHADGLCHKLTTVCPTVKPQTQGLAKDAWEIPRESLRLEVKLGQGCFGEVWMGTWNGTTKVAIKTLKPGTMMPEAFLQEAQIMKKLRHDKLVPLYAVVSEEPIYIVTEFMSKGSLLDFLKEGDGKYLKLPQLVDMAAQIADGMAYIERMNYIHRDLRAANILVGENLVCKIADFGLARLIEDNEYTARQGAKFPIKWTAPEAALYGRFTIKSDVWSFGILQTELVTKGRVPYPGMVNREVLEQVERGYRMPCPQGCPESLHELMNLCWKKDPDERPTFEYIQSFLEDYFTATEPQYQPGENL

4T1 [14] = assay: Induction of DNA damage in 4T1 cells assessed as increase in gamma-H2AX level incubated for 2 hrs by Western blot analysis; format: functional, cell-based; conditions: Mus musculus, dose <= 3.0 µM
4T1 [15] = assay: Induction of apoptosis in 4T1 cells assessed as late apoptotic cells at 5 uM incubated for 48 hrs by Annexin V-FITC/PI staining based flow cytometry (reference value: 1.73 %); format: functional, Mus musculus
4T1 [16] = assay: Induction of cell cycle arrest in 4T1 cells at G2/M phase assessed as decrease in CDK1 level incubated for 24 hrs by Western blot analysis; format: functional, cell-based; conditions: Mus musculus, dose <= 3.0 µM
4T1 [17] = assay: Induction of apoptosis in 4T1 cells assessed as early apoptotic cells at 0.5 uM incubated for 48 hrs by Annexin V-FITC/PI staining based flow cytometry (reference value: 0.32 %); format: functional, Mus musculus
MCF7 [18] = assay: Induction of cell cycle arrest in human MCF7 cells at G2/M phase assessed as decrease in cyclin B1 level incubated for 24 hrs by Western blot analysis; format: functional, cell-based; conditions: dose <= 3.0 µM
MCF7 [19] = assay: Induction of apoptosis in human MCF7 cells assessed as late apoptotic cells at 1 uM incubated for 48 hrs by Annexin V-FITC/PI staining based flow cytometry (reference value: 0.63 %); format: functional
[20] = system: Tyrosine-protein kinase ABL1 (Homo sapiens), P00519 [T315I]; assay: Inhibition of human Abl T315I mutant at 1 uM by KINOMEscan assay relative to control
4T1 [21] = assay: Induction of cell cycle arrest in 4T1 cells at G2/M phase assessed as decrease in cyclin B1 level incubated for 24 hrs by Western blot analysis; format: functional, cell-based; conditions: Mus musculus, dose <= 3.0 µM
HCT-116 = assay: Antiproliferative activity against human HCT-116 cells assessed as inhibition of cell viability upto 10 uM incubated for 72 hrs by MTT assay; format: functional, cell-based
OVCAR-3 = assay: Antiproliferative activity against human OVCAR-3 cells assessed as inhibition of cell viability upto 10 uM incubated for 72 hrs by MTT assay; format: functional, cell-based
HEY = assay: Antiproliferative activity against human HEY cells assessed as inhibition of cell viability upto 10 uM incubated for 72 hrs by MTT assay; format: functional, cell-based
4T1 [22] = assay: Antiproliferative activity against 4T1 cells assessed as inhibition of cell viability by MTT assay; format: functional, cell-based; conditions: Mus musculus

Compound: CN1CCN(c2ccc(Nc3nc(-n4nc(N)c5ccccc54)c4cc[nH]c4n3)cc2)CC1
- Activity [1]: Non-Toxic
- inhibition [2]: 65%
- IC50 [3]: 0.029 µM
- inhibition [4]: 40%
- Activity (4T1 [5]): 0.6%
- IC50 (A549): 2.03 µM
- IC50 (MDA-MB-231): 2.68 µM
- Activity [6]: Non-Toxic
- inhibition (4T1-Luc [7]): Active
- Activity (4T1-Luc [8]): Active
- Activity [9]: Non-Toxic
- Activity (MCF7 [10]): Active
- inhibition [11]: 92%
- inhibition (AGS): Active
- Activity (MCF7 [12]): Active
- inhibition [13]: 80%
- Activity (4T1 [14]): Dose-Dependent Effect
- Activity (4T1 [15]): 20.66%
- Activity (4T1 [16]): Dose-Dependent Effect
- Activity (4T1 [17]): 1.17%
- Activity (MCF7 [18]): Dose-Dependent Effect
- Activity (MCF7 [19]): 14.31%
- inhibition [20]: 100%
- Activity (4T1 [21]): Dose-Dependent Effect
- inhibition (HCT-116): Active
- inhibition (OVCAR-3): Active
- inhibition (HEY): Active
- IC50 (4T1 [22]): 0.4 µM
